From the supplement of paper PMC10307832

What was measured:
Assay in all cases: relative viability (nuclei count vs DMSO), 5 days (fraction); higher = more cells survive
HCC-366 = tested on: HCC-366
Procedure, shortened: (§1)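 After 5 days of treatment, lung cancer cells in 1536-well plates were fixed and stained in a single step (final 0.05% Triton X-100, 1% formaldehyde, 1 ug/ml Hoechst) and their nuclei counted on 4× images. Treatment had been applied by pin tool the day after seeding as one drug alone or as a fixed anchor-drug dose with five library-drug doses (not always all listed) in √10 steps. Relative viability is the nuclei count of treated wells divided by that of vehicle wells, and values are medians of duplicate plates.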

NCI-H647 = tested on: NCI-H647
Procedure, shortened: as §1

SK-LU-1 = tested on: SK-LU-1
Procedure, shortened: as §1

NCI-H2170 = tested on: NCI-H2170
Procedure, shortened: as §1

HCC-827 = tested on: HCC-827
Procedure, shortened: as §1

NCI-H1734 = tested on: NCI-H1734
Procedure, shortened: as §1

NCI-H1355 = tested on: NCI-H1355
Procedure, shortened: as §1

EKVX = tested on: EKVX
Procedure, shortened: as §1

NCI-H1437 = tested on: NCI-H1437
Procedure, shortened: as §1

NCI-H661 = tested on: NCI-H661
Procedure, shortened: as §1

NCI-H1993 = tested on: NCI-H1993
Procedure, shortened: as §1

SK-MES-1 = tested on: SK-MES-1
Procedure, shortened: as §1

NCI-H1395 = tested on: NCI-H1395
Procedure, shortened: as §1

NCI-H2342 = tested on: NCI-H2342
Procedure, shortened: as §1

HARA = tested on: HARA
Procedure, shortened: as §1

NCI-H522 = tested on: NCI-H522
Procedure, shortened: as §1

LOU-NH91 = tested on: LOU-NH91
Procedure, shortened: as §1

NCI-H2087 = tested on: NCI-H2087
Procedure, shortened: as §1

NCI-H2405 = tested on: NCI-H2405
Procedure, shortened: as §1

BEN = tested on: BEN
Procedure, shortened: as §1

NCI-H2009 = tested on: NCI-H2009
Procedure, shortened: as §1

**Q.** Which results are given for `COc1nc(C)cnc1NS(=O)(=O)c1cccnc1-c1ccc(-c2nnco2)cc1` [Zibotentan] + O=C(CCCCCCC(=O)Nc1ccccc1)NO [Vorinostat] (partner 1 µM)?
**A.** relative viability (HCC-366; first compound 0.08 µM): 0.461; relative viability (HCC-366; first compound 0.253 µM): 0.248; relative viability (HCC-366; first compound 0.8 µM): 0.21; relative viability (HCC-366; first compound 2.53 µM): 0.358; relative viability (NCI-H647; first compound 0.08 µM): 0.649; relative viability (NCI-H647; first compound 0.253 µM): 0.381; relative viability (NCI-H647; first compound 0.8 µM): 0.718; relative viability (NCI-H647; first compound 2.53 µM): 0.698; relative viability (SK-LU-1; first compound 0.08 µM): 0.697; relative viability (SK-LU-1; first compound 0.253 µM): 0.726; relative viability (SK-LU-1; first compound 0.8 µM): 0.819; relative viability (SK-LU-1; first compound 2.53 µM): 0.83; relative viability (NCI-H2170; first compound 0.08 µM): 0.883; relative viability (NCI-H2170; first compound 0.253 µM): 0.778; relative viability (NCI-H2170; first compound 0.8 µM): 0.875; relative viability (NCI-H2170; first compound 2.53 µM): 0.908; relative viability (HCC-827; first compound 0.08 µM): 0.958; relative viability (HCC-827; first compound 0.253 µM): 0.771; relative viability (HCC-827; first compound 0.8 µM): 0.811; relative viability (HCC-827; first compound 2.53 µM): 0.785; relative viability (NCI-H1734; first compound 0.08 µM): 0.842; relative viability (NCI-H1734; first compound 0.253 µM): 0.705; relative viability (NCI-H1734; first compound 0.8 µM): 0.864; relative viability (NCI-H1734; first compound 2.53 µM): 0.912; relative viability (NCI-H1355; first compound 0.08 µM): 0.682; relative viability (NCI-H1355; first compound 0.253 µM): 0.584; relative viability (NCI-H1355; first compound 0.8 µM): 0.657; relative viability (NCI-H1355; first compound 2.53 µM): 0.69; relative viability (EKVX; first compound 0.08 µM): 0.675; relative viability (EKVX; first compound 0.253 µM): 0.818; relative viability (EKVX; first compound 0.8 µM): 0.727; relative viability (EKVX; first compound 2.53 µM): 0.777; relative viability (NCI-H1437; first compound 0.08 µM): 1.05; relative viability (NCI-H1437; first compound 0.253 µM): 0.823; relative viability (NCI-H1437; first compound 0.8 µM): 0.834; relative viability (NCI-H1437; first compound 2.53 µM): 0.828; relative viability (NCI-H661; first compound 0.08 µM): 0.823; relative viability (NCI-H661; first compound 0.253 µM): 0.766; relative viability (NCI-H661; first compound 0.8 µM): 0.827; relative viability (NCI-H661; first compound 2.53 µM): 0.844; relative viability (NCI-H1993; first compound 0.08 µM): 1.05; relative viability (NCI-H1993; first compound 0.253 µM): 0.764; relative viability (NCI-H1993; first compound 0.8 µM): 0.826; relative viability (NCI-H1993; first compound 2.53 µM): 0.988; relative viability (SK-MES-1; first compound 0.08 µM): 1.18; relative viability (SK-MES-1; first compound 0.253 µM): 0.793; relative viability (SK-MES-1; first compound 0.8 µM): 1.09; relative viability (SK-MES-1; first compound 2.53 µM): 1.12; relative viability (NCI-H1395; first compound 0.08 µM): 0.809; relative viability (NCI-H1395; first compound 0.253 µM): 0.502; relative viability (NCI-H1395; first compound 0.8 µM): 0.698; relative viability (NCI-H1395; first compound 2.53 µM): 0.951; relative viability (NCI-H2342; first compound 0.08 µM): 0.832; relative viability (NCI-H2342; first compound 0.253 µM): 0.778; relative viability (NCI-H2342; first compound 0.8 µM): 0.778; relative viability (NCI-H2342; first compound 2.53 µM): 0.678; relative viability (HARA; first compound 0.08 µM): 0.638; relative viability (HARA; first compound 0.253 µM): 0.633; relative viability (HARA; first compound 0.8 µM): 0.569; relative viability (HARA; first compound 2.53 µM): 0.568; relative viability (NCI-H522; first compound 0.08 µM): 0.928; relative viability (NCI-H522; first compound 0.253 µM): 0.887; relative viability (NCI-H522; first compound 0.8 µM): 1.03; relative viability (NCI-H522; first compound 2.53 µM): 0.946; relative viability (LOU-NH91; first compound 0.08 µM): 0.941; relative viability (LOU-NH91; first compound 0.253 µM): 0.78; relative viability (LOU-NH91; first compound 0.8 µM): 0.953; relative viability (LOU-NH91; first compound 2.53 µM): 0.947; relative viability (NCI-H2087; first compound 0.08 µM): 0.719; relative viability (NCI-H2087; first compound 0.253 µM): 0.679; relative viability (NCI-H2087; first compound 0.8 µM): 0.752; relative viability (NCI-H2087; first compound 2.53 µM): 0.732; relative viability (NCI-H2405; first compound 0.08 µM): 1.25; relative viability (NCI-H2405; first compound 0.253 µM): 0.829; relative viability (NCI-H2405; first compound 0.8 µM): 0.957; relative viability (NCI-H2405; first compound 2.53 µM): 1.12; relative viability (BEN; first compound 0.08 µM): 0.571; relative viability (BEN; first compound 0.253 µM): 0.556; relative viability (BEN; first compound 0.8 µM): 0.568; relative viability (BEN; first compound 2.53 µM): 0.517; relative viability (NCI-H2009; first compound 0.08 µM): 0.705; relative viability (NCI-H2009; first compound 0.253 µM): 0.705; relative viability (NCI-H2009; first compound 0.8 µM): 0.72; relative viability (NCI-H2009; first compound 2.53 µM): 0.893
